Source: patent US9999616B2 (ZENITH EPIGENETICS LTD., priority 2013, dated 2018)

Experiments:
[1] = tested on: c-myc in Human AML MV4-11 cells; assay: Inhibition of cMYC expression (mRNA, real-time PCR) in MV4-11 cells; type: cell-based; settings: 3 h treatment, cMYC mRNA by real-time PCR
Outline: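 MV4-11 cells in IMDM with 10% FBS were treated with increasing compound concentrations (DMSO 0.1%) for 3 h at 37 °C, in triplicate. Isolated mRNA was quantified by one-step TaqMan RT-qPCR, cMYC Ct normalized to cyclophilin, and fold expression given relative to DMSO control.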

[2] = tested on: hApoA-1 mRNA; assay: Up-regulation of hApoA-1 mRNA transcription in Huh7 cells; type: cell-based; settings: Homo sapiens, Huh-7, EC170 of hApoA-1 mRNA up-regulation, 48 h, read-out: ApoA-1 activity
Protocol: Huh7 cells (2.5×10^5 per well) were plated in a 96-well plate using 100 μL DMEM per well, (Gibco DMEM supplemented with penicillin/streptomycin and 10% FBS), 72 h before the addition of the compound. The cells are treated with increasing concentrations of the compound or DMSO (0.1%), and incubated at 37° C., 5% CO2 for 48 h. Spent media was removed from the Huh-7 cells and placed on ice for immediate use with the “LDH cytotoxicity assay Kit II” from Abcam. The cells remaining in the plate were rinsed with 100 μL PBS. Cells were harvested using the mRNA Catcher PLUS kit according to manufacturer's instructions. The eluted mRNA was then used in a one-step quantitative real-time PCR reaction, using components of the RNA UltraSense™ One-Step Kit (Life Technologies) together with Applied Biosystems TaqMan® primer-probes for hApoA-1 and Cyclophilin. Real-time PCR plates were run on a ViiA™7 real time PCR machine (Applied Biosystems), data was analyzed, normalizing the Ct values for hApoA-1 to an internal control, prior to determining the fold induction of each unknown sample, relative to the control.

[3] = tested on: MV4-11 cells; assay: In vivo efficacy in athymic nude mouse acute myeloid leukemia xenograft model using MV4-11 cells; settings: athymic nude mouse AML xenograft (MV4-11), oral dosing
Protocol: MV4-11 cells (ATCC) were grown under standard cell culture conditions and (NCr) nu/nu fisol strain of female mice age 6-7 weeks were injected with 5×10^6 cells/animal in 100 μL PBS+100 μL Matrigel in the lower left abdominal flank. By approximately day 18-21 after MV4-11 cells injection, mice were randomized based on tumor volume (L×W×H)/2) of average ˜100-300 mm^3. Mice were dosed orally with compound at 5 to 120 mg/kg b.i.d and/or q.d. on a continuous dosing schedule and at 2.5 to 85 mg/kg q.d. on a 5 day on 2 day off, 100 mg/kg q.d. on a 4 day on and 3 day off, 135 mg/kg q.d. on a 3 day on and 4 day off, 180 mg/kg on a 2 day on and 5 day off and 240 mg/kg on a 1 day on and 6 days off dosing schedules in EA006 formulation at 10 mL/kg body weight dose volume. Tumor measurements were taken with electronic micro calipers and body weights measured on alternate days beginning from dosing period. The average tumor volumes, percent Tumor Growth Inhibition (TGI) and % change in body weights were compared relative to Vehicle control animals. The means, statistical analysis and the comparison between groups were calculated using Student's t-test in Excel.

[4] = In vivo efficacy in rat collagen-induced arthritis; settings: female Lewis rats, dosed Day 11 to Day 17
Protocol: Rat collagen-induced arthritis is an experimental model of polyarthritis that has been widely used for preclinical testing of numerous anti-arthritic agents. Following administration of collagen, this model establishes a measurable polyarticular inflammation, marked cartilage destruction in association with pannus formation and mild to moderate bone resorption and periosteal bone proliferation. In this model, collagen was administered to female Lewis strain of rats on Day 1 and 7 of study and dosed with compounds from Day 11 to Day 17. Test compounds were administered at 25 mg/kg to 120 mg/kg b.i.d and 7.5 mg/kg to 30 mg/kg q.d dose to assess the potential to inhibit the inflammation (including paw swelling), cartilage destruction and bone resorption in arthritic rats, using a model in which the treatment is administered after the disease has been established.

[5] = In vivo efficacy in experimental autoimmune encephalomyelitis (EAE) model of MS; design: species or system mouse; settings: female C57Bl/6 mice, 50 to 125 mg/kg b.i.d.
Excerpt: Experimental autoimmune encephalomyelitis (EAE) is a T-cell-mediated autoimmune disease of the CNS which shares many clinical and histopathological features with human multiple sclerosis (MS). EAE is the most commonly used animal model of MS. […] Cytokines IL-23, IL-6 and IL-17, which are either critical for Th1 and Th17 differentiation or produced by these T cells, play a critical and non-redundant role in EAE development. Therefore, drugs targeting production of these cytokines are likely to have therapeutic potential in treatment of MS.
Compounds of Formula I were administered at 50 to 125 mg/kg b.i.d. from time of immunization to EAE mice to assess anti-inflammatory activity. In this model, EAE is induced by MOG35-55/CFA immunization and pertussis toxin injection in female C57Bl/6 mice.

[6] = tested on: TH1, Th2 and Th17 cytokines; assay: Ex vivo effects on T cell function from splenocyte and lymphocyte cultures stimulated with external MOG; type: in vivo, mouse; settings: MOG stimulation 72 hours, mice treated 11 days b.i.d
Protocol: Mice were immunized with MOG/CFA and simultaneously treated with the compound for 11 days on a b.i.d regimen. Inguinal Lymph node and spleen were harvested, cultures were set up for lymphocytes and splenocytes and stimulated with external antigen (MOG) for 72 hours. Supernatants from these cultures were analyzed for TH1, Th2 and Th17 cytokines using a Cytometric Bead Array assay.

[7] = tested on: IL-6 and IL-17 and MCP-1 cytokines; assay: In vivo efficacy in mouse endotoxemia model; settings: C57/Bl6 mice, 75 mg/kg oral, LPS 0.5 mg/kg i.p.
Protocol: Sub lethal doses of Endotoxin (E. Coli bacterial lipopolysaccharide) are administered to animals to produce a generalized inflammatory response which is monitored by increases in secreted cytokines. Compounds are administered to C57/Bl6 mice at T=4 hours orally at 75 mg/kg dose to evaluate inhibition in IL-6 and IL-17 and MCP-1 cytokines post 3-h challenge with lipopolysaccharide (LPS) at T=0 hours at 0.5 mg/kg dose intraperitoneally.

| IC50 [1] [nM] | Compound | EC170 [2] [µM] | In vivo activity [3] | In vivo activity [4] | In vivo activity [5] | In vivo activity [6] | In vivo activity [7] |
| --- | --- | --- | --- | --- | --- | --- | --- |
| 300 to 3000 | Cc1nc2c(-c3cccnc3C)cc(-c3c(C)noc3C)cc2[nH]1 [Example Compound 41, 3,5-dimethyl-4-(2-methyl-4-(2-methylpyridin-3-yl)-1H-benzo[d]imidazol-6-yl)isoxazole] | ≤ 0.3 | Active | Active |  |  |  |
| ≤ 300 | Cc1nc2c(-c3c(C)nn(C)c3C)cc(-c3c(C)noc3C)cc2[nH]1 [Example Compound 49, 3,5-dimethyl-4-(2-methyl-4-(1,3,5-trimethyl-1H-pyrazol-4-yl)-1H-benzo[d]imidazol-6-yl)isoxazole] | ≤ 0.3 | Active |  |  |  |  |
| 300 to 3000 | Cc1nc2c(-c3c(C)noc3C)cc(-c3c(C)noc3C)cc2[nH]1 [Example Compound 6, 4,4′-(2-methyl-1H-benzo[d]imidazole-4,6-diyl)bis(3,5-dimethylisoxazole)] |  | Active |  | Active | Active |  |
| 300 to 3000 | Cc1noc(C)c1-c1cc(-c2c(C)noc2C)c2nc[nH]c2c1 [Example Compound 1, 4,4′-(1H-benzo[d]imidazole-4,6-diyl)bis(3,5-dimethylisoxazole)] | 0.3 to 3 | Active | Active | Active | Active | Active |
